Measured values as given in ChEMBL document CHEMBL4371024, “Synthesis and characterization of pyridoxine, nicotine and nicotinamide salts of dithiophosphoric acids as antibacterial agents against resistant wound infection” (Bioorg Med Chem, 2019).
≈ marks a conversion by molar mass, not a printed value. Calls of active or inactive are those of the source. The calls are words filed in the database; no cut-off is given here.

Legend:
Staphylococcus aureus [1] = experiment: Antibacterial activity against Staphylococcus aureus ATCC 29213 after 24 hrs by broth dilution method; type: functional; details: ATCC 29213, 24 h
Pseudomonas aeruginosa [2] = experiment: Antibacterial activity against Pseudomonas aeruginosa ATCC 27853 after 24 hrs by broth dilution method; type: functional; details: ATCC 27853, 24 h
[3] = system: Staphylococcus epidermidis; experiment: Antibacterial activity against Staphylococcus epidermidis after 24 hrs by broth dilution method; type: functional
Klebsiella pneumoniae [4] = experiment: Antibacterial activity against Klebsiella pneumoniae after 24 hrs by broth dilution method; type: functional
Pseudomonas aeruginosa [5] = experiment: Bactericidal activity against Pseudomonas aeruginosa ATCC 27853 incubated for 24 hrs followed by replating on Mueller-Hinton agar and further incubated for 24 hrs; type: functional; details: ATCC 27853, 24 h
Klebsiella pneumoniae [6] = experiment: Bactericidal activity against Klebsiella pneumoniae incubated for 24 hrs followed by replating on Mueller-Hinton agar and further incubated for 24 hrs; type: functional
Staphylococcus aureus [7] = experiment: Bactericidal activity against Staphylococcus aureus ATCC 29213 incubated for 24 hrs followed by replating on Mueller-Hinton agar and further incubated for 24 hrs; type: functional; details: ATCC 29213, 24 h
Staphylococcus aureus [8] = experiment: Antibacterial activity against methicillin, cefoxytin, levfloxacin-resistant and erythromycin, clindamycin-senstitive Staphylococcus aureus after 24 hrs by broth dilution method; type: functional
Staphylococcus aureus [9] = experiment: Antibacterial activity against methicillin, cefoxytin-resistant and levofloxacin, erythromycin, clindamycin-senstitive Staphylococcus aureus after 24 hrs by broth dilution method; type: functional
Staphylococcus aureus [10] = experiment: Antibacterial activity against multidrug-resistant Staphylococcus aureus after 24 hrs by broth dilution method; type: functional
Pseudomonas aeruginosa [11] = experiment: Antibacterial activity against multidrug-resistant Pseudomonas aeruginosa after 24 hrs by broth dilution method; type: functional
Pseudomonas aeruginosa [12] = experiment: Antibacterial activity against ciprofloxacin, imipenem, meronem-resistant and cefepime, piperacillin-tazobactam-sensitive Pseudomonas aeruginosa after 24 hrs by broth dilution method; type: functional
Pseudomonas aeruginosa [13] = experiment: Antibacterial activity against ciprofloxacin-resistant and multidrug-sensitive Pseudomonas aeruginosa after 24 hrs by broth dilution method; type: functional
Pseudomonas aeruginosa [14] = experiment: Antibacterial activity against multidrug-sensitive Pseudomonas aeruginosa after 24 hrs by broth dilution method; type: functional
Klebsiella pneumoniae [15] = experiment: Antibacterial activity against multidrug-sensitive Klebsiella pneumoniae after 24 hrs by broth dilution method; type: functional
Enterobacter cloacae = experiment: Antibacterial activity against multidrug-resistant and sensitive Enterobacter cloacae after 24 hrs by broth dilution method; type: functional
Escherichia coli = experiment: Antibacterial activity against multidrug-resistant and sensitive Escherichia coli after 24 hrs by broth dilution method; type: functional
[16] = Cytotoxicity against human HSF cells after 72 hrs by MTT assay; type: cell-based
[17] = Cytotoxicity against human HSF cells after 24 hrs by MTT assay; type: cell-based
Erythrocyte = experiment: Hemolytic activity in human erythrocytes at >100 uM; type: ADME, cell-based
[18] = Aggregation property of the compound in DMEM culture medium at 1 mM after 1 hr by dynamic light scattering method; type: physicochemical; details: 1000 µM
Staphylococcus aureus [19] = experiment: Drug interaction with Staphylococcus aureus cellular surface assessed as decrease in zeta potential at 1 mM treated for 1 hr followed by washing and measured by dynamic light scattering method; type: functional
Pseudomonas aeruginosa [20] = experiment: Drug interaction with Pseudomonas aeruginosa cellular surface assessed as decrease in zeta potential at 1 mM treated for 1 hr followed by washing and measured by dynamic light scattering method; type: functional
Klebsiella pneumoniae [21] = experiment: Ratio of MBC to MIC against Klebsiella pneumoniae; type: functional
Pseudomonas aeruginosa [22] = experiment: Ratio of MBC to MIC against Pseudomonas aeruginosa ATCC 27853; type: functional
Staphylococcus aureus [23] = experiment: Ratio of MBC to MIC against Staphylococcus aureus ATCC 29213; type: functional
[24] = Aggregation property of the compound assessed as mean hydrodynamic diameter at 1 mM after 1 hr by dynamic light scattering method; type: physicochemical; details: 1000 µM
Staphylococcus aureus [25] = experiment: Inhibition of extracellular component secretion and matrix formation in Staphylococcus aureus assessed as induction of bacterial aggregation at 1 uM by scanning electron microscopy; type: functional, organism-based
Pseudomonas aeruginosa [26] = experiment: Inhibition of extracellular component secretion and matrix formation in Pseudomonas aeruginosa assessed as induction of bacterial aggregation at 1 uM by scanning electron microscopy; type: functional, organism-based
Staphylococcus aureus [27] = experiment: Inhibition of extracellular component secretion and matrix formation in Staphylococcus aureus assessed as uncovering of bacterial cells at 1 uM by scanning electron microscopy; type: functional, organism-based
Pseudomonas aeruginosa [28] = experiment: Inhibition of extracellular component secretion and matrix formation in Pseudomonas aeruginosa assessed as uncovering bacterial cells at 1 uM by scanning electron microscopy; type: functional, organism-based

CN1CCC[C@H]1c1cccnc1.C[C@@H]1[C@@H](OP(=S)(S)O[C@H]2C[C@H]3C[C@@H]([C@@H]2C)C3(C)C)C[C@H]2C[C@@H]1C2(C)C gave an MIC (Staphylococcus aureus [1]) of 20 µM, an MIC (Pseudomonas aeruginosa [2]) of 320 µM and an MIC [3] of 20 µM. It also gave an MIC (Klebsiella pneumoniae [4]) of 320 µM.
With CC(C)[C@@H]1CC[C@@H](C)C[C@H]1OP(=S)(S)O[C@@H]1C[C@H](C)CC[C@H]1C(C)C.CN1CCC[C@H]1c1cccnc1 the MIC (Staphylococcus aureus [1]) was 20 µM, the MIC (Pseudomonas aeruginosa [2]) was 320 µM and the MIC [3] was 20 µM. It also gave an MIC (Klebsiella pneumoniae [4]) of 320 µM, an MBC (Pseudomonas aeruginosa [5]) of 320 µM and an MBC (Klebsiella pneumoniae [6]) of 640 µM. The MBC (Staphylococcus aureus [7]) was 20 µM, the MIC (Staphylococcus aureus [8]) was 11 µM and the MIC (Staphylococcus aureus [9]) was 11 µM. It also gave an MIC (Staphylococcus aureus [10]) of 23 µM, an MIC (Pseudomonas aeruginosa [11]) of 360 µM and an MIC (Pseudomonas aeruginosa [12]) of 360 µM. It also gave an MIC (Pseudomonas aeruginosa [13]) of 360 µM, an MIC (Pseudomonas aeruginosa [14]) of 360 µM and an MIC (Klebsiella pneumoniae [15]) of 360 µM. It also gave an MIC (Enterobacter cloacae) of 360 µM, an MIC (Escherichia coli) of 360 µM and an IC50 [16] of 57.6 µM. The IC50 [17] was 81.3 µM, the Activity (Erythrocyte) was “Toxic” and the Activity [18] was “Active”. The “fold change (FC)” value (Staphylococcus aureus [19]) was 1.2, the “fold change (FC)” value (Pseudomonas aeruginosa [20]) was 1.2 and the Ratio (Klebsiella pneumoniae [21]) was 1. It also gave a Ratio (Pseudomonas aeruginosa [22]) of 1, a Ratio (Staphylococcus aureus [23]) of 1 and an Activity [24] of 141.7 nm.
In the case of Cc1ccc(C(C)C)c(OP(=S)(S)Oc2cc(C)ccc2C(C)C)c1.NC(=O)c1cccnc1, the MIC (Staphylococcus aureus [1]) is reported as 380 µM, the MIC (Pseudomonas aeruginosa [2]) is reported as 380 µM and the MIC [3] is reported as 380 µM. For the same compound, the MIC (Klebsiella pneumoniae [4]) was 1500 µM.
For CC(C)[C@@H]1CC[C@@H](C)C[C@H]1OP(=S)(S)O[C@@H]1C[C@H](C)CC[C@H]1C(C)C.Cc1ncc(CO)c(CO)c1O, the Activity (Staphylococcus aureus [25]) was “Active”, the Activity (Pseudomonas aeruginosa [26]) was “Active” and the Activity (Staphylococcus aureus [27]) was “Active”. The Activity (Pseudomonas aeruginosa [28]) was “Active”.
In the case of C[C@@H]1[C@@H](OP(=S)(S)O[C@H]2C[C@H]3C[C@@H]([C@@H]2C)C3(C)C)C[C@H]2C[C@@H]1C2(C)C, the MIC (Staphylococcus aureus [1]) is reported as 390 µM (≈ 157 µg/mL), the MIC (Pseudomonas aeruginosa [2]) is reported as 1560 µM (≈ 628 µg/mL) and the MIC [3] is reported as 190 µM (≈ 76.5 µg/mL). For the same compound, the MIC (Klebsiella pneumoniae [4]) was 3110 µM (≈ 1250 µg/mL).
Compound CC1(C)[C@H]2CC[C@]1(C)[C@H](OP(=S)(S)O[C@@H]1C[C@@H]3CC[C@@]1(C)C3(C)C)C2 has an MIC (Staphylococcus aureus [1]) of 6210 µM (≈ 2500 µg/mL), an MIC (Pseudomonas aeruginosa [2]) of 6210 µM (≈ 2500 µg/mL) and an MIC [3] of 6210 µM (≈ 2500 µg/mL). The MIC (Klebsiella pneumoniae [4]) was 6210 µM (≈ 2500 µg/mL).
